From PubChem BioAssay AID330 (DTP/NCI, 2004)
Where “and” joins values, the source holds several entries; their conditions need not be identical. Equal values may be shown once. Toxic doses and inconclusive results are not listed. The calls were made as follows: active = survival T/C of 150% or more; inactive = T/C below 125% in these data.

Test system: P388 leukemia ip, CD2F1 mice, survival T/C
Assay: NCI In Vivo Anticancer Drug Screen. Data for tumor model P388 Leukemia (intraperitoneal) in CD2F1 (CDF1) mice
Conditions: endpoint: median survival time, higher = longer survival
How it was run: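 Mice carrying the transplanted tumor received test compound or vehicle. Survival was recorded in each group, and the value is the treated-group measurement divided by that of the vehicle-treated control group.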

[1] = dose: 50.0 mg/kg/injection, schedule: Q01DX005 (ip), vehicle: Klucel (hydroxypropylcellulose) (HPC)
[2] = dose: 100.0 mg/kg/injection, schedule: Q01DX005 (ip), vehicle: Klucel (hydroxypropylcellulose) (HPC)
[3] = dose: 200.0 mg/kg/injection, schedule: Q01DX005 (ip), vehicle: Klucel (hydroxypropylcellulose) (HPC)
[4] = dose: 50.0 mg/kg/injection, schedule: Q01DX009 (ip), vehicle: Klucel (hydroxypropylcellulose) (HPC)
[5] = dose: 100.0 mg/kg/injection, schedule: Q01DX009 (ip), vehicle: Klucel (hydroxypropylcellulose) (HPC)
[6] = dose: 200.0 mg/kg/injection, schedule: Q01DX009 (ip), vehicle: Klucel (hydroxypropylcellulose) (HPC)
[7] = dose: 50.0 mg/kg/injection, schedule: Q01DX009 (ip), vehicle: saline with Tween-80
[8] = dose: 100.0 mg/kg/injection, schedule: Q01DX009 (ip), vehicle: saline with Tween-80
[9] = dose: 200.0 mg/kg/injection, schedule: Q01DX009 (ip), vehicle: saline with Tween-80
[10] = dose: 100.0 mg/kg/injection, schedule: Q04DX003 (ip), vehicle: saline with Tween-80
[11] = dose: 200.0 mg/kg/injection, schedule: Q04DX003 (ip), vehicle: saline with Tween-80
[12] = dose: 400.0 mg/kg/injection, schedule: Q04DX003 (ip), vehicle: saline with Tween-80
[13] = dose: 25.0 mg/kg/injection, schedule: Q01DX009 (ip), vehicle: saline
[14] = dose: 50.0 mg/kg/injection, schedule: Q01DX009 (ip), vehicle: saline
[15] = dose: 100.0 mg/kg/injection, schedule: Q01DX009 (ip), vehicle: saline
[16] = dose: 100.0 mg/kg/injection, schedule: Q01DX001 (ip), vehicle: Klucel (hydroxypropylcellulose) (HPC)
[17] = dose: 200.0 mg/kg/injection, schedule: Q01DX001 (ip), vehicle: Klucel (hydroxypropylcellulose) (HPC)

Measured: T/C

Cn1cnc([N+](=O)[O-])c1SCC(N)C(=O)O (stereo unspecified)
inactive: [1] 94 % of control | [2] 94 % of control | [3] 94 % of control

O=C(O)c1ccccc1N1C(=O)CC2(CCCC2)C1=O
inactive: [4] 101 % of control | [5] 98 % of control | [6] 94 % of control

CS(=O)(=O)/C=C/c1cccnc1
inactive: [4] 101 % of control | [5] 99 % of control | [6] 103 % of control

Cc1cc(Cl)c2c(N(C)C)cccc2n1
inactive: dose: 50.0 mg/kg/injection, schedule: Q01DX009 (ip), vehicle: acid diluted with saline 106 % of control | dose: 100.0 mg/kg/injection, schedule: Q01DX009 (ip), vehicle: acid diluted with saline 93 % of control

C/C(=N\N=C(/[Se])N1CC2CCC(CC2)C1)c1ccccn1
inactive: dose: 1.56 mg/kg/injection, schedule: Q01DX009 (ip), vehicle: Klucel (hydroxypropylcellulose) (HPC) 100 % of control | dose: 3.12 mg/kg/injection, schedule: Q01DX009 (ip), vehicle: Klucel (hydroxypropylcellulose) (HPC) 124 % of control | dose: 12.5 mg/kg/injection, schedule: Q01DX009 (ip), vehicle: Klucel (hydroxypropylcellulose) (HPC) 98 % of control and 97 % of control

OC1CC2CC1C1C3C=CC(C3)C21 (stereo unspecified)
inactive: dose: 6.25 mg/kg/injection, schedule: Q01DX009 (ip), vehicle: saline with Tween-80 104 % of control | dose: 12.5 mg/kg/injection, schedule: Q01DX009 (ip), vehicle: saline with Tween-80 102 % of control | dose: 25.0 mg/kg/injection, schedule: Q01DX009 (ip), vehicle: saline with Tween-80 102 % of control

Clc1ccc(-c2n[nH]c3c2Cc2ccccc2-3)cc1Cl
inactive: [1] 97 % of control | [2] 91 % of control | [3] 98 % of control

c1ccc2nc3nc4ccccc4nc3nc2c1
inactive: dose: 15.0 mg/kg/injection, schedule: Q01DX009 (ip), vehicle: saline with Tween-80 92 % of control | dose: 30.0 mg/kg/injection, schedule: Q01DX009 (ip), vehicle: saline with Tween-80 114 % of control | dose: 50.0 mg/kg/injection, schedule: Q01DX005 (ip), vehicle: Klucel + Tween-80 90 % of control | [7] 103 % of control | dose: 60.0 mg/kg/injection, schedule: Q01DX009 (ip), vehicle: saline with Tween-80 111 % of control | dose: 100.0 mg/kg/injection, schedule: Q01DX005 (ip), vehicle: Klucel + Tween-80 96 % of control | [8] 113 % of control | dose: 200.0 mg/kg/injection, schedule: Q01DX005 (ip), vehicle: Klucel + Tween-80 93 % of control | [9] 107 % of control

C=C1C(=O)OC2C1C(OC(=O)/C(C)=C/C)CC1(C)C(O)CCC(=C)C21 (stereo unspecified)
inactive: dose: 12.5 mg/kg/injection, schedule: Q01DX005 (ip), vehicle: Klucel (hydroxypropylcellulose) (HPC) 106 % of control | dose: 25.0 mg/kg/injection, schedule: Q01DX005 (ip), vehicle: Klucel (hydroxypropylcellulose) (HPC) 107 % of control | [1] 114 % of control | [2] 107 % of control | [3] 98 % of control

CC1(C)C(=O)C=CC2(C)C1CC(=O)C1(C)C2CCC2(C)C(c3ccoc3)OC(=O)C3OC321 (stereo unspecified)
inactive: dose: 1.5 mg/kg/injection, schedule: Q01DX009 (ip), vehicle: Klucel (hydroxypropylcellulose) (HPC) 98 % of control and 102 % of control | dose: 3.0 mg/kg/injection, schedule: Q01DX009 (ip), vehicle: Klucel (hydroxypropylcellulose) (HPC) 98 % of control and 102 % of control | dose: 6.0 mg/kg/injection, schedule: Q01DX009 (ip), vehicle: Klucel (hydroxypropylcellulose) (HPC) 91 % of control and 96 % of control | dose: 12.0 mg/kg/injection, schedule: Q01DX009 (ip), vehicle: Klucel (hydroxypropylcellulose) (HPC) 102 % of control and 96 % of control | dose: 24.0 mg/kg/injection, schedule: Q01DX009 (ip), vehicle: Klucel (hydroxypropylcellulose) (HPC) 100 % of control and 102 % of control

CC(C)(c1cc(Cl)c(OCCO)c(Cl)c1)c1cc(Cl)c(OCCO)c(Cl)c1
inactive: [10] 100 % of control | [11] 100 % of control | [12] 95 % of control

CCOC(=O)c1c(Nc2ccccc2O)oc2ccccc12
inactive: dose: 100.0 mg/kg/injection, schedule: Q04DX003 (ip), vehicle: Klucel (hydroxypropylcellulose) (HPC) 98 % of control | dose: 200.0 mg/kg/injection, schedule: Q04DX003 (ip), vehicle: Klucel (hydroxypropylcellulose) (HPC) 92 % of control | dose: 400.0 mg/kg/injection, schedule: Q04DX003 (ip), vehicle: Klucel (hydroxypropylcellulose) (HPC) 95 % of control

O=CN(c1ccccc1)c1ccccc1
inactive: dose: 50.0 mg/kg/injection, schedule: Q01DX009 (ip), vehicle: other 95 % of control | dose: 50.0 mg/kg/injection, schedule: Q04DX003 (ip), vehicle: saline with Tween-80 107 % of control | dose: 100.0 mg/kg/injection, schedule: Q01DX009 (ip), vehicle: other 90 % of control | dose: 100.0 mg/kg/injection, schedule: Q04DX003 (ip), vehicle: other 91 % of control | [10] 109 % of control | dose: 200.0 mg/kg/injection, schedule: Q01DX009 (ip), vehicle: other 90 % of control | dose: 200.0 mg/kg/injection, schedule: Q04DX003 (ip), vehicle: other 87 % of control | [11] 110 % of control | dose: 400.0 mg/kg/injection, schedule: Q01DX009 (ip), vehicle: other 100 % of control | dose: 400.0 mg/kg/injection, schedule: Q04DX003 (ip), vehicle: other 87 % of control | [12] 110 % of control | dose: 800.0 mg/kg/injection, schedule: Q04DX003 (ip), vehicle: saline with Tween-80 97 % of control

CC(C)N1CCSC1=S
inactive: [7] 104 % of control | [8] 90 % of control | [9] 100 % of control

O=C(O)C[N-]CC(=O)O.OO.[O]=[V]
inactive: dose: 3.75 mg/kg/injection, schedule: Q01DX005 (ip), vehicle: saline with Tween-80 102 % of control | dose: 7.5 mg/kg/injection, schedule: Q01DX005 (ip), vehicle: saline with Tween-80 105 % of control | dose: 15.0 mg/kg/injection, schedule: Q01DX005 (ip), vehicle: saline with Tween-80 112 % of control | dose: 30.0 mg/kg/injection, schedule: Q01DX005 (ip), vehicle: saline with Tween-80 120 % of control

CC(C)N1CCOCC1
inactive: [13] 110 % of control | [14] 105 % of control and 100 % of control | [15] 105 % of control and 113 % of control

O=c1cc2cccccc-2o1
inactive: [16] 101 % of control | [17] 103 % of control

CCOc1ccc(-n2c(=O)c(N=Nc3ccc(OC)cc3)c(O)n(-c3ccccc3Cl)c2=S)cc1
inactive: dose: 50.0 mg/kg/injection, schedule: Q01DX001 (ip), vehicle: Klucel (hydroxypropylcellulose) (HPC) 97 % of control | [16] 94 % of control | [17] 94 % of control

O=C1CSC(=S)N1N1C(=O)CSC1=S
inactive: [4] 107 % of control | [5] 102 % of control | [6] 96 % of control

CNC(=S)N/N=C/c1ccccn1
inactive: [13] 117 % of control | [14] 116 % of control | [15] 101 % of control | dose: 200.0 mg/kg/injection, schedule: Q01DX009 (ip), vehicle: saline 97 % of control

Cc1ccc2nc(N3C(=O)CSC3=S)sc2c1
inactive: [4] 100 % of control | [5] 96 % of control
